Experiment: xn = mol fraction of the nth substance listed
Conditions: 100 kPa, Liquid; for viscosity: Falling or rolling sphere viscometry; for mass density: Vibrating tube method

OCC1CCCCC1 [cyclohexylmethanol] + CCCCCCCCCCCC
Conditions	mass density [kg/m3]	viscosity [mPa·s]
293.15 K, x2 = 0.1014	898.17	18.36
293.15 K, x2 = 0.1991	872.04	9.786
293.15 K, x2 = 0.299	849.06	6.177
293.15 K, x2 = 0.3997	828.81	4.307
293.15 K, x2 = 0.4992	811.3	3.223
293.15 K, x2 = 0.6005	795.57	2.542
293.15 K, x2 = 0.7008	781.83	2.087
293.15 K, x2 = 0.7986	769.9	1.809
293.15 K, x2 = 0.8996	758.73	1.594
298.15 K, x2 = 0.1014	894.59	14.59
298.15 K, x2 = 0.1991	868.46	7.99
298.15 K, x2 = 0.299	845.44	5.179
298.15 K, x2 = 0.3997	825.18	3.688
298.15 K, x2 = 0.4992	807.71	2.813
298.15 K, x2 = 0.6005	791.92	2.251
298.15 K, x2 = 0.7008	778.16	1.873
298.15 K, x2 = 0.7986	766.22	1.633
298.15 K, x2 = 0.8996	755.05	1.447
303.15 K, x2 = 0.1014	890.99	11.73
303.15 K, x2 = 0.1991	864.86	6.621
303.15 K, x2 = 0.299	841.79	4.403
303.15 K, x2 = 0.3997	821.5	3.197
303.15 K, x2 = 0.4992	804.02	2.479
303.15 K, x2 = 0.6005	788.23	2.01
303.15 K, x2 = 0.7008	774.47	1.69
303.15 K, x2 = 0.7986	762.53	1.481
303.15 K, x2 = 0.8996	751.37	1.321
308.15 K, x2 = 0.1014	887.35	9.573
308.15 K, x2 = 0.1991	861.23	5.545
308.15 K, x2 = 0.299	838.08	3.779
308.15 K, x2 = 0.3997	817.79	2.795
308.15 K, x2 = 0.4992	800.32	2.201
308.15 K, x2 = 0.6005	784.52	1.806
308.15 K, x2 = 0.7008	770.76	1.532
308.15 K, x2 = 0.7986	758.82	1.351
308.15 K, x2 = 0.8996	747.67	1.211
313.15 K, x2 = 0.1014	883.69	7.9
313.15 K, x2 = 0.1991	857.57	4.691
313.15 K, x2 = 0.299	834.37	3.271
313.15 K, x2 = 0.3997	814.07	2.461
313.15 K, x2 = 0.4992	796.59	1.966
313.15 K, x2 = 0.6005	780.79	1.631
313.15 K, x2 = 0.7008	767.03	1.395
313.15 K, x2 = 0.7986	755.09	1.237
313.15 K, x2 = 0.8996	743.96	1.115
318.15 K, x2 = 0.1014	879.99	6.588
318.15 K, x2 = 0.1991	853.91	4.005
318.15 K, x2 = 0.299	830.77	2.854
318.15 K, x2 = 0.3997	810.31	2.183
318.15 K, x2 = 0.4992	792.83	1.767
318.15 K, x2 = 0.6005	777.04	1.48
318.15 K, x2 = 0.7008	763.28	1.276
318.15 K, x2 = 0.7986	751.35	1.138
318.15 K, x2 = 0.8996	740.24	1.031
323.15 K, x2 = 0.1014	876.25	5.525
323.15 K, x2 = 0.1991	850.16	3.447
323.15 K, x2 = 0.299	827.01	2.507
323.15 K, x2 = 0.3997	806.53	1.947
323.15 K, x2 = 0.4992	789.05	1.594
323.15 K, x2 = 0.6005	773.26	1.348
323.15 K, x2 = 0.7008	759.51	1.171
323.15 K, x2 = 0.7986	747.58	1.05
323.15 K, x2 = 0.8996	736.5	0.957
328.15 K, x2 = 0.1014	872.47	4.696
328.15 K, x2 = 0.1991	846.36	2.99
328.15 K, x2 = 0.299	823.2	2.216
328.15 K, x2 = 0.3997	802.71	1.746
328.15 K, x2 = 0.4992	785.24	1.446
328.15 K, x2 = 0.6005	769.45	1.233
328.15 K, x2 = 0.7008	755.71	1.079
328.15 K, x2 = 0.7986	743.79	0.973
328.15 K, x2 = 0.8996	732.74	0.891
333.15 K, x2 = 0.1014	868.64	3.987
333.15 K, x2 = 0.1991	842.52	2.614
333.15 K, x2 = 0.299	819.35	1.972
333.15 K, x2 = 0.3997	798.87	1.574
333.15 K, x2 = 0.4992	781.41	1.318
333.15 K, x2 = 0.6005	765.62	1.132
333.15 K, x2 = 0.7008	751.89	0.997
333.15 K, x2 = 0.7986	739.98	0.904
333.15 K, x2 = 0.8996	728.97	0.832
